# Experimental data reported in patent US20250213735A1, “NEUROPEPTIDE Y1 RECEPTOR (NPY1R) TARGETED THERAPEUTICS AND USES THEREOF” (Radionetics Oncology, Inc., priority 2023, published 2025).
# Molecular target: hNPY1R (Homo sapiens (Human), UniProt P25929)
# Experiment: NPY1R binding assay (SK-N-MC membrane, [125I]-Peptide YY competition);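 note: bound radioligand separated by filtration over GF/C filter plates and counted, Ki obtained by non-linear regression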
# Settings: crude SK-N-MC membranes endogenously expressing NPY1R; [125I]-Peptide YY (human) 0.05 nM; 120 min at room temperature; read-out: hNPY1R binding Ki
# Protocol: Crude membrane fractions are prepared from SK-N-MC cells endogenously expressing the NPY1R receptor. The cells are grown to 85-100% confluence on standard tissue culture dishes in Eagle's Minimum Essential Medium supplemented with 10% dialyzed FBS. To prepare membranes, cells are scraped and collected in 1× Dulbecco's phosphate buffered saline and then pelleted at 1000 RPM's. The cell pellet is reconstituted in membrane preparation buffer (20 mM HEPES, 6 mM MgCl2 and 1 mM EGTA, protease inhibitor tablets, pH 7.4) and placed in a cell disruption vessel at 1000 PSI for 30 minutes on ice. The pressurized contents are then released and spun down at 1000 RPMs and the supernatant is collected and further centrifuged at 15,000 RPMs to pellet the membranes. The membrane pellet is resuspended in membrane preparation buffer, snap frozen and stored at −80° C. for later use.
# Assay contents are then filtered through unifilter GF/C microplates and washed with 9×400 μl of cold wash buffer (25 mM HEPES, 5 mM MgCl2, 1 mM CaCl2), 500 mM NaCl, 0.1% Tween-20, pH 7.4). Assay plates are read using a Top Count NXT and Ki values for compounds are determined using a GraphPad Prism 6 non-linear regression analysis.
# hNPY1R, sequence (P25929 whole entry): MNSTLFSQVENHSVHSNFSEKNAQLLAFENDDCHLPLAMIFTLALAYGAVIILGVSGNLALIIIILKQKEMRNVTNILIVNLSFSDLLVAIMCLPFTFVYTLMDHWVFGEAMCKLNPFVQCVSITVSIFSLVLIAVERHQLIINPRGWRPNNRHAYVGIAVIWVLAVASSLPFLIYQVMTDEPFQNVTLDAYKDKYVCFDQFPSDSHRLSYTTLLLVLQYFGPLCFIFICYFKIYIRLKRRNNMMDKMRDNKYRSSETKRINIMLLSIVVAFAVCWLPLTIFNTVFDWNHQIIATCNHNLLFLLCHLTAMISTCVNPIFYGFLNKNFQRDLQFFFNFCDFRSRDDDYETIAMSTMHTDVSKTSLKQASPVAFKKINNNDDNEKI
row,SMILES,Ki [nM]
1,"CCC(=O)NCCNC(=O)/N=C(/N)NCCC[C@@H](NC(=O)[C@H](c1ccccc1)N1Cc2cccc(NCCCNC(=O)C[C@H]3NC(=O)[C@@H](CCCNC(=O)CN4CCN(CC(=O)O)CCN(CC(=O)O)CCN(CC(=O)O)CC4)NC3=O)c2C1)C(=O)NCc1c(F)cc(O)cc1F [compound 40, 2,2′,2″-(10-(2-((3-((2R,5R)-5-(2-((3-((2-((1S,4R,Z)-9-amino-4-((2,6-difluoro-4-hydroxybenzyl)carbamoyl)-2,11,16-trioxo-1-phenyl-3,8,10,12,15-pentaazaoctadec-9-en-1-yl)isoindolin-4-yl)amino)propyl)amino)-2-oxoethyl)-3,6-dioxopiperazin-2-yl)propyl)amino)-2-oxoethyl)-1,4,7,10-tetraazacyclododecane-1,4,7-triyl)triacetic acid]",< 10
2,"CCC(=O)NCCNC(=O)/N=C(/N)NCCC[C@@H](NC(=O)[C@H](c1ccc(OCCCNC(=O)CCCCCNC(=O)CN2CCN(CC(=O)O)CCN(CC(=O)O)CCN(CC(=O)O)CC2)cc1)N1Cc2ccccc2C1)C(=O)NCc1c(F)cc(O)cc1F [compound 36, 2,2′,2″-(10-(2-((6-((3-(4-((1S,4R,Z)-9-amino-4-((2,6-difluoro-4-hydroxybenzyl)carbamoyl)-1-(isoindolin-2-yl)-2,11,16-trioxo-3,8,10,12,15-pentaazaoctadec-9-en-1-yl)phenoxy)propyl)amino)-6-oxohexyl)amino)-2-oxoethyl)-1,4,7,10-tetraazacyclododecane-1,4,7-triyl)triacetic acid]",< 10
3,"CCC(=O)NCCNC(=O)/N=C(/N)NCCC[C@@H](NC(=O)[C@H](c1ccc(CCCOCCOCCNC(=O)CN2CCN(CC(=O)O)CCN(CC(=O)O)CCN(CC(=O)O)CC2)cc1)N1Cc2ccccc2C1)C(=O)NCc1c(F)cc(O)cc1F (single isomer, unassigned) [8A]",< 10
4,"CCC(=O)NCCNC(=O)/N=C(/N)NCCC[C@@H](NC(=O)[C@H](c1ccc(OCCCNC(=O)C[C@H](O)C[C@H](O)CCNC(=O)CCC(=O)NCCNC(=O)CN2CCN(CC(=O)O)CCN(CC(=O)O)CCN(CC(=O)O)CC2)cc1)N1Cc2ccccc2C1)C(=O)NCc1c(F)cc(O)cc1F [compound 53, 2,2′,2″-(10-((14R,16R)-22-(4-((1S,4R,Z)-9-amino-4-((2,6-difluoro-4-hydroxybenzyl)carbamoyl)-1-(isoindolin-2-yl)-2,11,16-trioxo-3,8,10,12,15-pentaazaoctadec-9-en-1-yl)phenoxy)-14,16-dihydroxy-2,7,10,18-tetraoxo-3,6,11,19-tetraazadocosyl)-1,4,7,10-tetraazacyclododecane-1,4,7-triyl)triacetic acid]",< 10
5,"CCNC(=O)/N=C(/N)NCCC[C@@H](NC(=O)C(c1ccccc1)N1Cc2ccccc2C1)C(=O)NCc1c(F)cc(O)cc1F (stereo partly drawn) [compound 67, (2R)—N-(2,6-difluoro-4-hydroxybenzyl)-5-((Z)-2-(ethylcarbamoyl)guanidino)-2-(2-(isoindolin-2-yl)-2-phenylacetamido)pentanamide]",< 10
6,"CCCC1CCN([C@H](C(=O)N[C@H](CCCNC(=N)N)C(=O)NCc2ccc(O)cc2)c2ccccc2)CC1 [compound 78, (R)-5-guanidino-N-(4-hydroxybenzyl)-2-((S)-2-phenyl-2-(4-propylpiperidin-1-yl)acetamido)pentanamide]",100 to 1000
7,"CCC(=O)NCCNC(=O)/N=C(/N)NCCC[C@@H](NC(=O)[C@@H](c1cccc(NC(=O)CCCNC(=O)CCCCCNC(=O)CN2CCN(CC(=O)O)CCN(CC(=O)O)CCN(CC(=O)O)CC2)c1)N1Cc2ccccc2C1)C(=O)NCc1ccc(O)cc1 [3B, 2,2′,2″-(10-(2-((6-((4-((3-((1R,4R,Z)-9-amino-4-((4-hydroxybenzyl)carbamoyl)-1-(isoindolin-2-yl)-2,11,16-trioxo-3,8,10,12,15-pentaazaoctadec-9-en-1-yl)phenyl)amino)-4-oxobutyl)amino)-6-oxohexyl)amino)-2-oxoethyl)-1,4,7,10-tetraazacyclododecane-1,4,7-triyl)triacetic acid]",< 10
